In patent US20050112573A1, “Method of detecting toxic substance” (priority 2001, published 2005):

Test system: yeast genes (level of expressed mRNA)
Assay: DNA chip analysis of expressed mRNA of yeast genes after 2 h culture with a toxic chemical substance
Type: cell-based, Saccharomyces cerevisiae S288C
Details: for The level of expressed mRNA in the presence of chemical substance/ (ratio to absence of chemical substance): stress protein genes, DNA chip; for The level of expressed mRNA in the presence of chemical substance/ in its absence, gene YPR184W: yeast gene YPR184W
Description: Yeast (Saccharomyces cerevtisiae S288C (α SUC2mal mel gap2 CUP1)) were cultured at 25° C. on YPD medium (yeast extract 1%, polypepton 2%, glucose 2%). One of toxic chemical substances was added to the cell at logarithmic growth phase, and the cell was further cultured for two hours. Cell was cultured without any chemical substance in the same condition, and was used as control. Concentrations of the chemical substances were defined to inhibit the growth of the yeast but not lead to death.
After the completion of cultivation, the culture was centrifuged to collect the cells. To the cells, sodium acetate buffer (50 mM sodium acetate, 10 mM EDTA, 1% SDS) was added, and the mixture was shaken at 65° C. for five minutes, followed by returning to room temperature, and obtaining the supernatant, which procedure was repeated two times. To the supernatant, ½ amount of a solution of phenol/chloroform was added, and the mixture was centrifuged to give a supernatant, which was added with an equal amount of chloroform, and the mixture was centrifuged to give a supernatant. To the supernatant, an equal amount of isopropanol containing 0.3 M sodium acetate was added, and the mixture was allowed to stand at room temperature for 30 minutes, after which the mixture was centrifuged to give a sediment of the whole RNAs. Seventy % ethanol was added to the sediment, and the mixture was again centrifuged to give a sediment, which was then dried and dissolved in water. mRNA was isolated from the whole RNAs as followings. In view of the fact that a poly A chain is attached to the 3′ terminus of mRNA, a polynucleotide having a poly T structure which was immobilized on the surface of latex beads was used to trap the mRNA, and then the mRNA was washed and eluted with spine column (Oligotex-dT30<Super>mRNA Purification Kit, Takara). Reverse transcription of the mRNA was conducted with a reverse transcriptase (Super Script II Reverse Transcriptase; catalogue No. 18064-014, GibcoBRL) using fluorescence-labeled nucleotides to give cDNAs that were introduced with Cy3-dUTP or Cy5-dUTP during the reverse transcription.
The labeled cDNAs were dissolved in TE buffer (10 mM Tris-HCl/1 mM EDTA, pH8.0), and the solution was dropped on the DNA chip containing the whole genes of yeast (DNA Chip Research Inc. Japan) so that the cDNAs were hybridized on the DNA chip at 65° C. for over 12 hours. The fluoresces intensity of the DNA chip was read with a scanner, and the ratio relative to the fluorescence intensity resulting from the absence of chemical substance was estimated as the following, which is shown in Tables 1 to 9: [formula]
In the Tables, “Intensity” indicated in the rightmost column is a value of the level of expressed mRNA of each gene in control cells as divided by the average level of the expressions of the whole genes.

## C=CC=O [(14), acrolein]
Yeast gene YNL006W
  The level of expressed mRNA in the presence of chemical substance/The level of expressed mRNA in the absence of chemical substance: 0.8
Yeast gene YNL007C
  The level of expressed mRNA in the presence of chemical substance/The level of expressed mRNA in the absence of chemical substance: 0.4
Yeast gene YNL025C, ratio of DNA chip fluorescence intensity to that without chemical substance
  The level of expressed mRNA in the presence of chemical substance/ (in its absence), gene YNL025C: 1.2
Yeast gene YNL064C
  The level of expressed mRNA in the presence of chemical substance/ (ratio to absence of chemical substance): 0.8
Yeast gene YNL073W, mitochondria-located protein genes, 2 h culture with chemical
  The level of expressed mRNA in the presence of chemical substance/ (ratio to absence), gene YNL073W: 0.7
Yeast gene YNL093W
  The level of expressed mRNA in the presence of chemical substance/The level of expressed mRNA in the absence of chemical substance: 1.1
Yeast gene YNL192W, ratio of DNA chip fluorescence intensity to that without chemical substance
  The level of expressed mRNA in the presence of chemical substance/ (in its absence), gene YNL192W: 0.7
Yeast gene YNL333W
  The level of expressed mRNA in the presence of chemical substance/The level of expressed mRNA in the absence of chemical substance: 1.9
Yeast gene YNR010W
  The level of expressed mRNA in the presence of chemical substance/The level of expressed mRNA in the absence of chemical substance: 1.3
Yeast gene YNR069C
  The level of expressed mRNA in the presence of chemical substance/The level of expressed mRNA in the absence of chemical substance: 2.1
Yeast gene YNR072W, ratio of DNA chip fluorescence intensity to that without chemical substance
  The level of expressed mRNA in the presence of chemical substance/ (in its absence), gene YNR072W: 1.0
Yeast gene YNR076W
  The level of expressed mRNA in the presence of chemical substance/ (ratio to absence of chemical substance): 0.8
Yeast gene YOL013C
  The level of expressed mRNA in the presence of chemical substance/The level of expressed mRNA in the absence of chemical substance: 0.9
Yeast gene YOL096C, mitochondria-located protein genes, 2 h culture with chemical
  The level of expressed mRNA in the presence of chemical substance/ (ratio to absence), gene YOL096C: 1.4
Yeast gene YOL096C, ratio of DNA chip fluorescence intensity to that without chemical substance
  The level of expressed mRNA in the presence of chemical substance/ (in its absence), gene YOL096C: 1.4
Yeast gene YOL108C, ratio of DNA chip fluorescence intensity to that without chemical substance
  The level of expressed mRNA in the presence of chemical substance/ (in its absence), gene YOL108C: 0.9
Yeast gene YOL116W, ratio of DNA chip fluorescence intensity to that without chemical substance
  The level of expressed mRNA in the presence of chemical substance/ (in its absence), gene YOL116W: 0.9
Yeast gene YOL161C
  The level of expressed mRNA in the presence of chemical substance/ (ratio to absence of chemical substance): 0.9
Yeast gene YOL164W
  The level of expressed mRNA in the presence of chemical substance/The level of expressed mRNA in the absence of chemical substance: 1.3
Yeast gene YOR008C
  The level of expressed mRNA in the presence of chemical substance/ (ratio to absence of chemical substance): 0.9
Yeast gene YOR009W
  The level of expressed mRNA in the presence of chemical substance/ (ratio to absence of chemical substance): 0.7
Yeast gene YOR010C
  The level of expressed mRNA in the presence of chemical substance/ (ratio to absence of chemical substance): 0.4
Yeast gene YOR036W
  The level of expressed mRNA in the presence of chemical substance/The level of expressed mRNA in the absence of chemical substance: 1.2
Yeast gene YOR103C, ratio of DNA chip fluorescence intensity to that without chemical substance
  The level of expressed mRNA in the presence of chemical substance/ (in its absence), gene YOR103C: 1.2
Yeast gene YOR117W
  The level of expressed mRNA in the presence of chemical substance/The level of expressed mRNA in the absence of chemical substance: 1.0
Yeast gene YOR124C
  The level of expressed mRNA in the presence of chemical substance/The level of expressed mRNA in the absence of chemical substance: 0.8
Yeast gene YOR132W
  The level of expressed mRNA in the presence of chemical substance/The level of expressed mRNA in the absence of chemical substance: 0.7
Yeast gene YOR157C
  The level of expressed mRNA in the presence of chemical substance/The level of expressed mRNA in the absence of chemical substance: 2.2
Yeast gene YOR180C, ratio of DNA chip fluorescence intensity to that without chemical substance
  The level of expressed mRNA in the presence of chemical substance/ (in its absence), gene YOR180C: 1.0
Yeast gene YOR181W
  The level of expressed mRNA in the presence of chemical substance/The level of expressed mRNA in the absence of chemical substance: 0.9
Yeast gene YOR185C
  The level of expressed mRNA in the presence of chemical substance/The level of expressed mRNA in the absence of chemical substance: 2.1
Yeast gene YOR198C
  The level of expressed mRNA in the presence of chemical substance/The level of expressed mRNA in the absence of chemical substance: 1.1
Yeast gene YOR251C, ratio of DNA chip fluorescence intensity to that without chemical substance
  The level of expressed mRNA in the presence of chemical substance/ (in its absence), gene YOR251C: 1.1
Yeast gene YOR259C
  The level of expressed mRNA in the presence of chemical substance/The level of expressed mRNA in the absence of chemical substance: 1.2
Yeast gene YOR261C
  The level of expressed mRNA in the presence of chemical substance/The level of expressed mRNA in the absence of chemical substance: 1.8
Yeast gene YOR288C
  The level of expressed mRNA in the presence of chemical substance/The level of expressed mRNA in the absence of chemical substance: 0.8
Yeast gene YOR316C, mitochondria-located protein genes, 2 h culture with chemical
  The level of expressed mRNA in the presence of chemical substance/ (ratio to absence), gene YOR316C: 1.0
Yeast gene YOR348C, ratio of DNA chip fluorescence intensity to that without chemical substance
  The level of expressed mRNA in the presence of chemical substance/ (in its absence), gene YOR348C: 1.2
Yeast gene YOR355W
  The level of expressed mRNA in the presence of chemical substance/The level of expressed mRNA in the absence of chemical substance: 0.6
Yeast gene YOR363C, ratio of DNA chip fluorescence intensity to that without chemical substance
  The level of expressed mRNA in the presence of chemical substance/ (in its absence), gene YOR363C: 0.9
Yeast gene YOR383C
  The level of expressed mRNA in the presence of chemical substance/The level of expressed mRNA in the absence of chemical substance: 0.6
Yeast gene YPL040C, mitochondria-located protein genes, 2 h culture with chemical
  The level of expressed mRNA in the presence of chemical substance/ (ratio to absence), gene YPL040C: 1.1
Yeast gene YPL059W
  The level of expressed mRNA in the presence of chemical substance/ (ratio to absence of chemical substance): 1.3
Yeast gene YPL089C
  The level of expressed mRNA in the presence of chemical substance/The level of expressed mRNA in the absence of chemical substance: 0.8
Yeast gene YPL109C
  The level of expressed mRNA in the presence of chemical substance/The level of expressed mRNA in the absence of chemical substance: 1.3
Yeast gene YPL134C, mitochondria-located protein genes, 2 h culture with chemical
  The level of expressed mRNA in the presence of chemical substance/ (ratio to absence), gene YPL134C: 1.4
Yeast gene YPL140C
  The level of expressed mRNA in the presence of chemical substance/ (ratio to absence of chemical substance): 1.1
Yeast gene YPL148C, ratio of DNA chip fluorescence intensity to that without chemical substance
  The level of expressed mRNA in the presence of chemical substance/ (in its absence), gene YPL148C: 1.6
Yeast gene YPL149W
  The level of expressed mRNA in the presence of chemical substance/The level of expressed mRNA in the absence of chemical substance: 1.0
Yeast gene YPL154C
  The level of expressed mRNA in the presence of chemical substance/The level of expressed mRNA in the absence of chemical substance: 0.8
Yeast gene YPL194W
  The level of expressed mRNA in the presence of chemical substance/ (ratio to absence of chemical substance): 1.1
Yeast gene YPR005C
  The level of expressed mRNA in the presence of chemical substance/ (ratio to absence of chemical substance): 1.3
Yeast gene YPR103W
  The level of expressed mRNA in the presence of chemical substance/The level of expressed mRNA in the absence of chemical substance: 1.8
Yeast gene YPR108W
  The level of expressed mRNA in the presence of chemical substance/The level of expressed mRNA in the absence of chemical substance: 1.0
Yeast gene YPR165W, ratio of DNA chip fluorescence intensity to that without chemical substance
  The level of expressed mRNA in the presence of chemical substance/ (in its absence), gene YPR165W: 1.0
Energy system protein genes, 2 h culture with the chemical, ratio to control without chemical
  The level of expressed mRNA in the presence of chemical substance/ in its absence, gene YPR184W: 1.3
Ratio of DNA chip fluorescence intensity to that without chemical substance
  The level of expressed mRNA in the presence of chemical substance/ in its absence, gene YPR184W: 1.3
